Values of other authors in patent US20230086007A1, “USE OF DENATONIUM BENZOATE AS A SEED TREATMENT FOR CROPS AS BIRD AND/OR INSECT REPELLENT” (KWS SAAT SE & Co. KGaA, priority 2020, published 2023).

System: maize
Settings: maize seed treatment; cited from earlier work

## CN(C)C(=S)SSC(=S)N(C)C [Thiram]
  effect on early seedling vigour: significant reduction in early seedling vigour
